Assay results published in PubChem BioAssay (NCI).
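Values below derive from 48-hour exposures of cells grown in 96-well plates, with endpoints linearly interpolated between the two concentrations bracketing the appropriate inhibition level. Definition used: TGI = concentration required for complete inhibition of growth.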

Assays:
Experiment in all cases: NCI anticancer screen, dose series, 48 h
786-0 renal = tested on: 786-0 renal
A498 renal = tested on: A498 renal
A549 NSCLC = tested on: A549 NSCLC
ACHN renal = tested on: ACHN renal
BT-549 breast = tested on: BT-549 breast
CAKI-1 renal = tested on: CAKI-1 renal
CCRF-CEM leukemia = tested on: CCRF-CEM leukemia
COLO 205 colon = tested on: COLO 205 colon
DU-145 prostate = tested on: DU-145 prostate
EKVX NSCLC = tested on: EKVX NSCLC
HCC-2998 colon = tested on: HCC-2998 colon
HCT-116 colon = tested on: HCT-116 colon
HCT-15 colon = tested on: HCT-15 colon
HL-60(TB) leukemia = tested on: HL-60(TB) leukemia
HOP-62 NSCLC = tested on: HOP-62 NSCLC
HOP-92 NSCLC = tested on: HOP-92 NSCLC
HS 578T breast = tested on: HS 578T breast
HT29 colon = tested on: HT29 colon
K-562 leukemia = tested on: K-562 leukemia
KM12 colon = tested on: KM12 colon
LOX IMVI melanoma = tested on: LOX IMVI melanoma
M14 melanoma = tested on: M14 melanoma
MALME-3M melanoma = tested on: MALME-3M melanoma
MCF7 breast = tested on: MCF7 breast
MDA-MB-231 breast = tested on: MDA-MB-231 breast
MDA-MB-435 = tested on: MDA-MB-435
MDA-N = tested on: MDA-N
MOLT-4 leukemia = tested on: MOLT-4 leukemia
NCI-H226 lung = tested on: NCI-H226 lung
NCI-H23 lung = tested on: NCI-H23 lung
NCI-H460 lung = tested on: NCI-H460 lung
NCI/ADR-RES ovarian = tested on: NCI/ADR-RES ovarian
OVCAR-3 ovarian = tested on: OVCAR-3 ovarian
OVCAR-4 ovarian = tested on: OVCAR-4 ovarian
OVCAR-5 ovarian = tested on: OVCAR-5 ovarian
OVCAR-8 ovarian = tested on: OVCAR-8 ovarian
PC-3 prostate = tested on: PC-3 prostate
RPMI-8226 leukemia = tested on: RPMI-8226 leukemia
RXF 393 renal = tested on: RXF 393 renal
SF-268 CNS = tested on: SF-268 CNS
SF-295 CNS = tested on: SF-295 CNS
SF-539 CNS = tested on: SF-539 CNS
SK-MEL-2 melanoma = tested on: SK-MEL-2 melanoma
SK-MEL-28 melanoma = tested on: SK-MEL-28 melanoma
SK-MEL-5 melanoma = tested on: SK-MEL-5 melanoma
SK-OV-3 ovarian = tested on: SK-OV-3 ovarian
SN12C renal = tested on: SN12C renal
SNB-19 CNS = tested on: SNB-19 CNS
SNB-75 CNS = tested on: SNB-75 CNS
SW-620 colon = tested on: SW-620 colon
TK-10 renal = tested on: TK-10 renal
U251 CNS = tested on: U251 CNS
UACC-257 melanoma = tested on: UACC-257 melanoma
UACC-62 melanoma = tested on: UACC-62 melanoma
UO-31 renal = tested on: UO-31 renal

COc1cccc2c(=O)c3c(O)c4cc(N(C)C)ccc4c(OC(C)=O)c3oc12
TGI (786-0 renal): 24 µM | TGI (A498 renal): 60.8 µM | TGI (A549 NSCLC): > 100 µM | TGI (ACHN renal): 32.8 µM | TGI (BT-549 breast): 21.9 µM | TGI (CAKI-1 renal): 16.9 µM | TGI (CCRF-CEM leukemia): 13.8 µM | TGI (COLO 205 colon): 17.8 µM | TGI (DU-145 prostate): 37.5 µM | TGI (EKVX NSCLC): 25.8 µM | TGI (HCC-2998 colon): 32.5 µM | TGI (HCT-116 colon): 26.8 µM | TGI (HCT-15 colon): 25.3 µM | TGI (HL-60(TB) leukemia): 14.2 µM | TGI (HOP-62 NSCLC): 41.5 µM | TGI (HOP-92 NSCLC): 39.3 µM | TGI (HS 578T breast): 69.5 µM | TGI (HT29 colon): 27.1 µM | TGI (K-562 leukemia): 97.4 µM | TGI (KM12 colon): 34.8 µM | TGI (LOX IMVI melanoma): 24.3 µM | TGI (M14 melanoma): 29.9 µM | TGI (MALME-3M melanoma): 8.96 µM | TGI (MCF7 breast): 61.7 µM | TGI (MDA-MB-231 breast): 25 µM | TGI (MDA-MB-435): 31.4 µM | TGI (MDA-N): 27.8 µM | TGI (MOLT-4 leukemia): 40.5 µM | TGI (NCI-H226 lung): 75.3 µM | TGI (NCI-H23 lung): 38.4 µM | TGI (NCI-H460 lung): 50.2 µM | TGI (NCI/ADR-RES ovarian): 60.5 µM | TGI (OVCAR-3 ovarian): 13.6 µM | TGI (OVCAR-4 ovarian): 32 µM | TGI (OVCAR-5 ovarian): > 100 µM | TGI (OVCAR-8 ovarian): 37.4 µM | TGI (PC-3 prostate): 56.7 µM | TGI (RPMI-8226 leukemia): 52.6 µM | TGI (RXF 393 renal): 18.6 µM | TGI (SF-268 CNS): 68.4 µM | TGI (SF-295 CNS): > 100 µM | TGI (SF-539 CNS): 40.4 µM | TGI (SK-MEL-2 melanoma): 46.9 µM | TGI (SK-MEL-28 melanoma): 22.3 µM | TGI (SK-MEL-5 melanoma): 25.1 µM | TGI (SK-OV-3 ovarian): > 100 µM | TGI (SN12C renal): 25.5 µM | TGI (SNB-19 CNS): 91.6 µM | TGI (SNB-75 CNS): 51.4 µM | TGI (SW-620 colon): 22.4 µM | TGI (TK-10 renal): 29.3 µM | TGI (U251 CNS): 30.2 µM | TGI (UACC-257 melanoma): 32.2 µM | TGI (UACC-62 melanoma): 28 µM | TGI (UO-31 renal): 36.4 µM
